Measurements as given in patent US20250326720A1, “CAREBASTINE SALT AND USE OF SAME” (priority 2022, published 2025).
In brackets after ≈: the same amount, converted by molar mass. Where a name gives a salt, the structure may show the parent alone. Read-outs that look alike come from different tables or passages of the source. Marks after values point to notes of the source that are not given here.

Tests used:
[1] = Stability study (influencing factors, HPLC purity); type: physicochemical; details: for Purity Day 12 under high temperature / Purity Day 12 under light / Purity Day 0 / Purity Day 12 under high humidity: HPLC; for Purity Day 12 under high temperature: 60° C.; for Purity Day 12 under high humidity: RH80%
Text: Carebastine (Comparative Example 2, Comparative Example 2′), carebastine potassium salt (Example 1), and carebastine p-toluenesulfonate (Example 3, Example 5).
Three samples of each of carebastine (Comparative Example 2), refined carebastine (Comparative Example 2′), carebastine potassium salt (Example 1), carebastine p-toluenesulfonate (Example 3), and carebastine p-toluenesulfonate (Example 5) were weighed and placed in weighing flasks. The samples of each group were placed under high temperature (60° C.), high humidity (RH80%), and light (5000Lux) conditions, and the samples were taken for testing after 12 days. Note: The refined carebastine of Comparative Example 2′ can be prepared by column chromatography of Comparative Example 2 using common technical means in the related art.
Detection method: An appropriate amount of each of the samples was weighed accurately, and is dissolved in acetonitrile and quantitatively diluted to a solution containing about 0.08 mg per 1 ml. The detection was carried out using high performance liquid chromatography, octadecylsilane bonded silica gel as a filler, and water-acetonitrile (1:1) as a mobile phase, under a detection wavelength of 256 nm, column temperature of 35° C., and injection volume of 10 μL. Each sample solution was injected into the liquid chromatograph and the chromatogram was recorded.

Hygroscopicity study = type: physicochemical; details: 25° C.±1° C., relative humidity 80%, 24 hours
Method: The preparation of carebastine hydrochloride refers to the description of patent U.S. Pat. No. 6,340,761, and the purity is 99% or more. […] (2) An appropriate amount of the sample was spread flat in the weighing bottle. […] (3) The weighing bottle was opened and placed with the lid under the above constant temperature and humidity conditions for 24 hours. (4) The lid was put on the weighing bottle and the weight was accurately weighed (m3).

[2] = Solubility test in different media; type: physicochemical
Method: Carebastine (Comparative Example 2) and carebastine p-toluenesulfonate (Example 3).
Hydrochloric acid solution with a pH of 1.2:7.65 ml of hydrochloric acid was diluted to 1000 ml with water, and shaken evenly to obtain the solution.
Phosphate buffer with a pH of 4.5:3.40278 g of KH2PO4 was weighed, dissolved in water and diluted to 500 ml, and shaken evenly to obtain the solution.
Phosphate buffer with a pH of 6.8:3.40353 g of KH2PO4 and 0.4428 g of sodium hydroxide were weighed, dissolved in water and diluted to 500 ml, and shaken evenly to obtain the solution.
Appropriate amounts of the compounds of Example 3 and Comparative Example 2 were respectively placed in conical flasks containing 50 ml of water, 50 ml of a hydrochloric acid solution with a pH of 1.2, 50 ml of a phosphate buffer with a pH of 4.5, and 50 ml of a phosphate buffer with a pH of 6.8, respectively, so that the solutions were supersaturated and insoluble matter was clearly visible.
The conical flasks were placed in a thermostatic water bath at 37° C. and an oscillation rate of 120 r/min. Samples were taken at 24 h, 48 h, and 72 h, and detected by liquid chromatography.

[3] = system: histamine-induced shock in guinea pigs; assay: Histamine-induced shock test in guinea pigs; type: in vivo; details: gavage, equimolar to 1.00 mg/kg ebastine, histamine phosphate i.v. one hour after administration, n = 10; for Time of accelerated respiration: x ± s
Method: One hour after administration, 0.125 wt. % histamine phosphate saline solution was injected intravenously into lateral sides of hind paws of the guinea pigs at 2 ml/kg. After the injection was completed within 10 s, a stopwatch was used immediately to observe the latency period for the guinea pigs to develop accelerated respiration and collapse with convulsions.

CC(C)(C(=O)O)c1ccc(C(=O)CCCN2CCC(OC(c3ccccc3)c3ccccc3)CC2)cc1 [Comparative Example 2, 2-(4-(4-(4-(diphenylmethoxy)piperidin-1-yl)butyryl)phenyl)-2-methylpropanoic acid]
stability under light ([1]; 5000Lux, 12 days): extremely unstable
Purity Day 12 under high temperature ([1]; 12 days): 97.22%
Purity Day 12 under light ([1]; 5000Lux, 12 days): 87.28%
Purity Day 0 [1]: 97.78%
Purity Day 12 under high humidity ([1]; 12 days): 97.41%
Characteristic description (hygroscopicity) (Hygroscopicity study): Hygroscopic
Weight gain Percentage (Hygroscopicity study): 6%
solubility ([2]; Hydrochloric acid solution with a pH of 1.2, 37° C., 24 h): 460 µg/mL (≈ 921 µM)
solubility ([2]; Hydrochloric acid solution with a pH of 1.2, 37° C., 48 h): 540 µg/mL (≈ 1080 µM)
solubility ([2]; Hydrochloric acid solution with a pH of 1.2, 37° C., 72 h): 390 µg/mL (≈ 781 µM)
solubility ([2]; Phosphate buffer with a pH of 4.5, 37° C., 24 h): 200 µg/mL (≈ 400 µM)
solubility ([2]; Phosphate buffer with a pH of 4.5, 37° C., 48 h): 190 µg/mL (≈ 380 µM)
solubility ([2]; Phosphate buffer with a pH of 4.5, 37° C., 72 h): 200 µg/mL (≈ 400 µM)
solubility ([2]; Phosphate buffer with a pH of 6.8, 37° C., 24 h): 30 µg/mL (≈ 60 µM)
solubility ([2]; Phosphate buffer with a pH of 6.8, 37° C., 48 h): 30 µg/mL (≈ 60 µM)
solubility ([2]; Phosphate buffer with a pH of 6.8, 37° C., 72 h): 30 µg/mL (≈ 60 µM)
solubility ([2]; Water, 37° C., 24 h): 720 µg/mL (≈ 1440 µM)
solubility ([2]; Water, 37° C., 48 h): 520 µg/mL (≈ 1040 µM)
solubility ([2]; Water, 37° C., 72 h): 520 µg/mL (≈ 1040 µM)

CC(C)(C(=O)O)c1ccc(C(=O)CCCN2CCC(OC(c3ccccc3)c3ccccc3)CC2)cc1 [Comparative Example 2′, carebastine]
Purity Day 12 under high temperature ([1]; 12 days): 99.45%
Purity Day 12 under light ([1]; 5000Lux, 12 days): 88.11%
Purity Day 0 [1]: 99.65%
Purity Day 12 under high humidity ([1]; 12 days): 99.25%

CC(C)(C(=O)O)c1ccc(C(=O)CCCN2CCC(OC(c3ccccc3)c3ccccc3)CC2)cc1 [Comparative Example 3, carebastine hydrochloride]
Characteristic description (hygroscopicity) (Hygroscopicity study; hydrochloride): Extremely hygroscopic
Weight gain Percentage (Hygroscopicity study; hydrochloride): 15.9%
solubility [2]: 80 µg/mL
solubility ([2]; pH 6.8): 10 µg/mL

CC(C)(C(=O)[O-])c1ccc(C(=O)CCCN2CCC(OC(c3ccccc3)c3ccccc3)CC2)cc1.[Na+] [Example 2, sodium 2-(4-(4-(4-(diphenylmethoxy)piperidin-1-yl)butyryl)phenyl)-2-methylpropanoate]
Mortality rate [3]: 0/10
Time of convulsion and collapse [3]: >600*^▴ s
Time of accelerated respiration [3]: 275 ± 31.41 s

CC(C)(C(=O)O)c1ccc(C(=O)CCCN2CCC(OC(c3ccccc3)c3ccccc3)CC2)cc1.CS(=O)(=O)O [Example 4, 2-(4-(4-(4-(diphenylmethoxy)piperidin-1-yl)butyryl)phenyl)-2-methylpropanoic acid methanesulfonate]
Mortality rate [3]: 0/10
Time of convulsion and collapse [3]: >600*^▴ s
Time of accelerated respiration [3]: 256 ± 24.05 s

CC(C)(C(=O)O)c1ccc(C(=O)CCCN2CCC(OC(c3ccccc3)c3ccccc3)CC2)cc1.Cc1ccc(S(=O)(=O)O)cc1 [Example 5, carebastine p-toluenesulfonate]
Purity Day 12 under high temperature ([1]; 12 days): 97.90%
Purity Day 12 under light ([1]; 5000Lux, 12 days): 97.80%
Purity Day 0 [1]: 97.90%
Purity Day 12 under high humidity ([1]; 12 days): 97.89%
